This is an account of results in patent US20060058217A1, “Compositions and methods for treatment of ovarian cancer” (priority 2003, published 2006).

The subject of data set [1] is splenic cytotoxic T-cells. The data set can be described thus: redirected lysis assay of spleen cells co-cultured with tumor ascites inhibitory cells. It is filed as cell-based, mouse. The settings on record: antalarmin 0.5 to 1 micromolar; 3 days co-culture in vitro; stimulation with anti-CD3/CD28 monoclonal antibodies. As to the method: To assess the IL-2 responsiveness of T-cells within murine ascites, whole populations of cells were cultured overnight for up to 3 days with IL-2 and then tested for lytic activity using the redirected lysis assay. The assay was similar to the assay described for human cells but an anti-mouse CD3 monoclonal antibody (2C11) was used instead of OKT3. While control splenic cells from non-tumor bearing mice contained cytotoxic T-cell lytic function, the ascites samples had no IL-2 responsive T-cell lytic activity.
Experiments were then performed with antalarmin, a CRH receptor antagonist, to determine if manipulation of CRH activity was involved in the regulation of lytic activity in ovarian carcinoma cells. Spleen cells from normal non-tumor bearing mice were co-cultured in vitro for 3 days with tumor ascites inhibitory cells from the mouse model system. […]
Freshly isolated reproductive tract cells were tested for lytic function by an anti-CD3 mAb (OKT3)-dependent redirected lysis assay (White et al., J. Immunology 158:3017, 1997). […] The chromium released into the supernatant fraction was measured to obtain the percent specific cytotoxicity (% specific lysis), i.e. percent of labeled target cells killed by CD3+ effector cells, using duplicate wells and a titration of 3 effector to target ratios. […]

The subject of another data set is Fas ligand. Conditions: resulting in decreased apoptosis of fetal cell-recognizing T-cells; cited from earlier work.
The test system of data set [2] is implantation sites and live embryos. Conditions: rodents; antalarmin administration; cited from earlier work.
Data set [3] relates to stimulated splenic T-cells (CD3+ and CD8+). Kind of data set: FACS analysis of splenic CD3+ and CD8+ cells co-cultured with tumor ascites inhibitory cells. Conditions: antalarmin 0.5 to 1 micromolar; co-culture with tumor ascites inhibitory cells. It is filed as cell-based, mouse. In general terms: Flow cytometry measures light scatter and fluorescence of single cells or particles in a stream.

A further data set has as its system spleen cells. The data set can be described thus: splenic cell yields after challenge with ID8 murine ovarian carcinoma cells. It is filed as in vivo, C57BL6 mice. From the text: Normal C57BL6 mice were challenged with ID8 murine ovarian carcinoma cells (intraperitoneally) in the presence of control vehicle (diluent), antalarmin, T-cell stimulation with 2C11 antibody, or antalarmin plus T-cell stimulation. Ten days after challenge, spleen cells were harvested and T-cells were restimulated with either antibody to the T-cell receptor and co-receptor or ID8 tumor cells in the presence of antalarmin, antibody stimulation, or a combination of antalarmin plus antibodies to T-cell receptor and co-receptor. Six days later, cells were harvested and tested for splenic cell yields. […] Treatment with tumor cells plus antalarmin plus antibody stimulation in the in vivo priming phase, followed by restimulation with irradiated tumor cells in the presence of antalarmin, provided conditions also favorable for preventing spleen cell loss induced by tumor cells. Thus, antalarmin was an important factor in preserving immune cells in vivo in the initial phases of ovarian cancer disease.

For `CCCCN(CC)c1nc(C)nc2c1c(C)c(C)n2-c1c(C)cc(C)cc1C` [antalarmin], the “cytotoxic T-cell lytic function down-regulated by tumor ascites inhibitory cells” value in data set [1] is “prevented the down-regulation”. The “fetal cell Fas ligand expression” value in the data set with Fas ligand is “decrease fetal cell Fas ligand expression”. For the same molecule, the “number of implantation sites and live embryos” value in data set [2] was “decreased the number of implantation sites an live embryos”. Also, in data set [3], the “loss of CD3-stimulated T-cells mediated by murine ascites inhibitory cells” value is on record as “prevent the loss of CD3− stimulated T-cells”. The “loss of spleen cells at early stages of ovarian carcinoma disease” value in the data set on spleen cells (ID8 cells intraperitoneally, spleen cells harvested ten days after challenge, restimulated, yields tested six days later) is given as “prevented the loss of spleen cells”. Besides, the splenic cell yields result in the data set with spleen cells (antalarmin added to tumor cells for in vivo priming phase, then non-specific stimulation or no stimulation in restimulation phase) is “best yields of spleen cells”.
